Test results as given in PMC12016938, “A small molecule PKCε inhibitor reduces hyperalgesia induced by paclitaxel or opioid withdrawal” (JCI Insight, 2025).
“And” between values parts separate entries of the source, which are not always exact repeats. Equal values may be shown once. “Also recorded” adds a separate entry of the source. Where a name gives a salt, the structure may show the parent alone.

Experiments:
[1] = system: PKCε-dependent mechanical hyperalgesia; assay: Hyperalgesia induced by the PKCε activator ψεRACK, Randall-Selitto paw pressure test; details: for Force applied that led to paw withdrawal: one paw
Experimental: Thirty minutes later, rats were administered vehicle (5 μL, intradermally) or CP612 (1 μg/5 μL, intradermally) (Figure 3). We measured nociceptive thresholds at the same site, at baseline, 30 minutes after the administration of ψεRACK (time 0) and 15, 30, and 60 minutes after the administration of vehicle or CP612.
Mechanical nociceptive thresholds in rats were quantified by the Randall-Selitto paw pressure test using an Ugo Basile Analgesy-Meter. This device applies a linearly increasing mechanical force to the dorsum or plantar region of the rat hind paw. The mechanical nociceptive threshold is defined as the force in grams at which a rat withdraws its paw. […] For studies testing nociceptive thresholds after the PKCε activator ψεRACK, or after the cancer chemotherapeutic drug paclitaxel, rats were placed into cylindrical acrylic restrainers for 40 minutes before starting each session. The restrainers had lateral ports to allow access to the hind paw, as previously described ([35]), and pain thresholds were measured by applying force to the dorsum of the hind paw. Prior to starting experiments, baseline mechanical nociceptive threshold was obtained as the mean of 2–3 readings on 1 hind paw in each rat.

PKN2 = molecular target: T1, PKN2 (Homo sapiens, UniProt Q16513); assay: scanMax kinome panel, PKN2; format: binding; details: 200 nM CP612
T1 construct: purchased Eurofins-DiscoverX
Experimental: (§1) CP612 was screened for kinome specificity at 200 nM against 468 kinases using the scanMax assay panel from Eurofins-DiscoverX. CP612 inhibited 10 other WT kinases besides PKCε, all to < 10% of control: CLK1 (CDC Like Kinase 1), CLK4, PKN1 (Protein kinase N1), PKN2, PKCδ, PKCη, PKCθ, PRKG2 (Protein Kinase CGMP-Dependent 2), ROCK1, and ROCK2.

ROCK2 = molecular target: T2, ROCK2 (Homo sapiens, UniProt O75116); assay: scanMax kinome panel, ROCK2; format: binding; details: 200 nM CP612
T2 construct: purchased Eurofins-DiscoverX
Experimental: as §1

[2] = LogD determination (PBS/n-octanol); format: physicochemical; details: 1:1 0.1M PBS/n-octanol, mean of duplicate, 37°C
Experimental: LogD determination. Test compounds were diluted by adding 12 μL of 1 mM DMSO stocks to 1,188 μL of 1:1 0.1M PBS/n-octanol in duplicate. Samples were vortexed, shaken at 600 rpm for 3 hours at 37°C. Samples (100 μL) of each phase layer were extracted in 3 volumes of acetonitrile for 15 minutes, centrifuged at 10,000g for 10 minutes, and then analyzed by LC-MS. The ratio of concentrations measured in the organic and aqueous phases was log10 transformed to determine the logD.

[3] = system: hyperalgesia induced by morphine withdrawal; assay: Prevention of hyperalgesia due to morphine withdrawal, von Frey SUDO; format: in vivo, C57BL/6J mice; details: for von Frey filament number that led to paw withdrawal: prevention, individual mouse
Source text: We next investigated if CP612 prevents hyperalgesia induced by withdrawal from repeated administration of morphine, in male and female C57BL/6J mice. […] These findings indicate that a single dose of the PKCε inhibitor can prevent hyperalgesia induced by opioid withdrawal.

PKCβII = molecular target: T3, PKCβII (Homo sapiens, UniProt P05771); assay: Lance-FRET kinase assay, PKCβII; format: biochemical; details: Figure 1B
T3 construct: purchased SignalChem Biotech
Experimental: Kinase assays. CP612 was assayed against His-AVI–tagged human PKCε (1 nM) produced in Sf9 cells, and ROCK1 (Carna Biosciences; 5 nM) using the Lance-FRET kinase assay system (PerkinElmer Revvity). Other human recombinant PKCs (SignalChem Biotech) were assayed in triplicate at the following concentrations: PKCβII 1.6 nM, PKCγ 500 pM, PKCδ 5 nM, PKCθ 500 pM, and PKCζ 500 pM. PKCs were incubated in a 15 μL reaction volume with kinase buffer (20 mM Tris-HCL [pH 7.4], 10 mM MgCl2, 0.25 mM EGTA, 0.1 mg/mL BSA, and 0.15% Triton X-100), 50 nM ULight-labeled CREBtide […] (PerkinElmer, TRF0107, Revvity), and test compound. […] After incubation at 27°C for another 60 minutes, phosphorylation was detected using a FlexStation 3 Microplate Reader (Molecular Devices) in LANCE TR-FRET mode (excitation = 340 nm, emission = 665 nm) and expressed as relative fluorescence units (RFU). The percentage of inhibition was calculated as: (signal without test compound − signal with test compound)/(signal without test compound − signal without ATP) × 100. […]
Kinase assays used 11-point concentration-response curves and results were analyzed by nonlinear regression using Prism 9 (GraphPad Software) to determine IC50 values. […] Scores for pain threshold, conditioned place preference, and self-administration were analyzed by ANOVA using the following factors. […]

PKN1 (Protein kinase N1) = molecular target: T4, PKN1 (Protein kinase N1) (Homo sapiens, UniProt Q16512); assay: scanMax kinome panel, PKN1; format: binding; details: 200 nM CP612; read-out: scanMax % of control, PKN1
T4 construct: purchased Eurofins-DiscoverX
Experimental: as §1

[4] = system: hyperalgesia induced by morphine withdrawal; assay: Time course of hyperalgesia induced by morphine withdrawal, von Frey SUDO; details: for von Frey filament number that led to paw withdrawal: single male mouse; for Hyperalgesia after withdrawal from repeated morphine: male C57BL/6J mice, 20–100 mg/kg i.p. twice daily 5 days
Experimental: Mice received repeated injections of saline (10 mL/kg, i.p.) or morphine (20–100 mg/kg, i.p.) twice daily for 5 days, to induce dependence.
Mechanical nociceptive thresholds in mice were quantified using the simplified up-down (SUDO) method with von Frey filaments ([36]). […] The force to bend the filaments ranged from 0.008 g (filament 1) to 6 g (filament 12). Mice were acclimated to the test room and apparatus for 1 hour prior to testing. We started testing mice with filament 5 (bending force 0.16 g) and stepped up or down according to the response of the mouse. The filament that elicited a definite paw withdrawal or notable flinch was recorded. All measures were averaged between both hind paws and are expressed as filament number, which allows for parametric analysis ([36]). The higher the filament number, the higher the pain threshold (and the lower the sensitivity to pain). Prior to starting experiments, baseline threshold levels were obtained 3–4 times at 2- to 5-day intervals on each of the hind paws of the mouse.
Morphine dependence in mice was induced by repeated i.p. injections (10 mL/kg) of morphine administered at increasing doses, over 5 days (day 1: 20 mg/kg, day 2: 40 mg/kg, day 3: 60 mg/kg, day 4: 80 mg/kg, day 5: 100 mg/kg). Injections of each dose were administered twice daily, 6 hours apart.

T3 sequence (P05771 1-673 isoform P05771-2): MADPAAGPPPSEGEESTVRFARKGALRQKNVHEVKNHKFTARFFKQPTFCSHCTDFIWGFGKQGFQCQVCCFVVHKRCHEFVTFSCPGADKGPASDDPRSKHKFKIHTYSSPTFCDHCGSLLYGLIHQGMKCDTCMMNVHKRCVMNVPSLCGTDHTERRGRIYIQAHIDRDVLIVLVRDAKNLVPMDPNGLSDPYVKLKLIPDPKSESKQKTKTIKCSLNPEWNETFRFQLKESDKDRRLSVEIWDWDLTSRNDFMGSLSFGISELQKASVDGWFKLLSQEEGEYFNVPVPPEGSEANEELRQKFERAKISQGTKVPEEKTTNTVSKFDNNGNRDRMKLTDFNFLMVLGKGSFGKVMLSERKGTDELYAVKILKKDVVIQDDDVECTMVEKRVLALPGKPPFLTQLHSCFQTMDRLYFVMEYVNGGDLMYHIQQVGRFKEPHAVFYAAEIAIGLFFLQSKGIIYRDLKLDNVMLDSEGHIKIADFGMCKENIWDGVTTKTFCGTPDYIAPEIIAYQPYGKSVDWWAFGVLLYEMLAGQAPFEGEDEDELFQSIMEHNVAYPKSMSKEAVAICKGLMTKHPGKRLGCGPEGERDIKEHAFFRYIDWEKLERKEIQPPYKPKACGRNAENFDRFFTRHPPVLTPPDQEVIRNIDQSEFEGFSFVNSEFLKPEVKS
T4 sequence (Q16512 whole entry): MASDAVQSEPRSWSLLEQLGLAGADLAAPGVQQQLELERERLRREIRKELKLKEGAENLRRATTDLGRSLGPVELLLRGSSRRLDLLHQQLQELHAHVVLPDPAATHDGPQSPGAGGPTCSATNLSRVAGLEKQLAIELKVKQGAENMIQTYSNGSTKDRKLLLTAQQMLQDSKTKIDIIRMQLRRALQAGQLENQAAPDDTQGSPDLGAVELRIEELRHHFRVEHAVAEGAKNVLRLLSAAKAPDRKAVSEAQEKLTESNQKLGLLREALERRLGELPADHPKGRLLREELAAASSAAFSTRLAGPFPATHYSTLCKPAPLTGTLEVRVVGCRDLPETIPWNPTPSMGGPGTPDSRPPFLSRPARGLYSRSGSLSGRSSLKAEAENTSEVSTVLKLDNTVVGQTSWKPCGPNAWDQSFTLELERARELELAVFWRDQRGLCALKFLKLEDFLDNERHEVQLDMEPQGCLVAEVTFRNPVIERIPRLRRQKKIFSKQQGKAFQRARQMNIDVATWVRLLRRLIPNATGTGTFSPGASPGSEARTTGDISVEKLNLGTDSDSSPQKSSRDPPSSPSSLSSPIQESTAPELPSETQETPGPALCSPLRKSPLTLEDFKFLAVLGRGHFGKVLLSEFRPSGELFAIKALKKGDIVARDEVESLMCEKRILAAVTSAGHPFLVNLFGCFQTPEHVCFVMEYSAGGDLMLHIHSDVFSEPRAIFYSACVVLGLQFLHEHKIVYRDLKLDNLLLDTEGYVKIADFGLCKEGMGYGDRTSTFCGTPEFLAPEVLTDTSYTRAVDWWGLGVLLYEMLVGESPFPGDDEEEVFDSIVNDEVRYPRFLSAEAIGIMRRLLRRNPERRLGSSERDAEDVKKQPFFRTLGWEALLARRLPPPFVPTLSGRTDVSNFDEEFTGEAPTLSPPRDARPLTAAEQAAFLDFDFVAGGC
T2 sequence (O75116 whole entry): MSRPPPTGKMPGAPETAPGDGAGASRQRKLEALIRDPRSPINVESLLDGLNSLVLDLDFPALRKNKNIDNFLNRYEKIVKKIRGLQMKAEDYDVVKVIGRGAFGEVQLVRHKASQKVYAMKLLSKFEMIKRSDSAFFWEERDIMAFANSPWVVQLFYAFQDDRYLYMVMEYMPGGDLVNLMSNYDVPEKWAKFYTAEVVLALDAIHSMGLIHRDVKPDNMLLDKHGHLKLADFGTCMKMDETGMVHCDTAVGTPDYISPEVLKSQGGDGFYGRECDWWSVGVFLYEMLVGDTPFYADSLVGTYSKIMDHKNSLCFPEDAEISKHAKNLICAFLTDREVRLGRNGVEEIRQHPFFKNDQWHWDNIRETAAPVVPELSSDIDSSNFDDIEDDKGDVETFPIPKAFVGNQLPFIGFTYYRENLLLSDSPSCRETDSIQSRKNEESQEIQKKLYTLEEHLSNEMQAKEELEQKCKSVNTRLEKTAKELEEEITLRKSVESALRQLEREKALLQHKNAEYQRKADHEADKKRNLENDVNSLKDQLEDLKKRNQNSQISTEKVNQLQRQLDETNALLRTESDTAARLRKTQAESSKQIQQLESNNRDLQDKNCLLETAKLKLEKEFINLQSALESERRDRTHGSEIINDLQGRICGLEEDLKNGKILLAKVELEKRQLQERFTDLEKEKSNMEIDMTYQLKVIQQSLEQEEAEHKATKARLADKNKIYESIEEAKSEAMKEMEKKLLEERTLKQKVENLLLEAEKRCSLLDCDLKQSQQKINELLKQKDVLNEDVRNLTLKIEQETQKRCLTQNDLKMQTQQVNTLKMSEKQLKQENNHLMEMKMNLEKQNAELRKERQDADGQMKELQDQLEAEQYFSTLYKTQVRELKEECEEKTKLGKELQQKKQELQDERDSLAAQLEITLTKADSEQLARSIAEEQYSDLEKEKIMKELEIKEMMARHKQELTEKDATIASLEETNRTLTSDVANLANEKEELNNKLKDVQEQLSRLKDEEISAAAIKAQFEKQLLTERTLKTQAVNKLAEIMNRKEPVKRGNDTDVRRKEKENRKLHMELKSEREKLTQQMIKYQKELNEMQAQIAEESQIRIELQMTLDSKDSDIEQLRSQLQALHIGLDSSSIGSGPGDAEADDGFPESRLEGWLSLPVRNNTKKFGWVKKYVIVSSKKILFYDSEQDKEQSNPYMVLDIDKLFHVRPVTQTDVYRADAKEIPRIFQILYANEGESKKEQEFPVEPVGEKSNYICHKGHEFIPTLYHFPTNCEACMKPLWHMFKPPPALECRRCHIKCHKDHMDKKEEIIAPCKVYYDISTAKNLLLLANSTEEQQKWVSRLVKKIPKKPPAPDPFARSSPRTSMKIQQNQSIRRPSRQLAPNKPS
T1 sequence (Q16513 whole entry): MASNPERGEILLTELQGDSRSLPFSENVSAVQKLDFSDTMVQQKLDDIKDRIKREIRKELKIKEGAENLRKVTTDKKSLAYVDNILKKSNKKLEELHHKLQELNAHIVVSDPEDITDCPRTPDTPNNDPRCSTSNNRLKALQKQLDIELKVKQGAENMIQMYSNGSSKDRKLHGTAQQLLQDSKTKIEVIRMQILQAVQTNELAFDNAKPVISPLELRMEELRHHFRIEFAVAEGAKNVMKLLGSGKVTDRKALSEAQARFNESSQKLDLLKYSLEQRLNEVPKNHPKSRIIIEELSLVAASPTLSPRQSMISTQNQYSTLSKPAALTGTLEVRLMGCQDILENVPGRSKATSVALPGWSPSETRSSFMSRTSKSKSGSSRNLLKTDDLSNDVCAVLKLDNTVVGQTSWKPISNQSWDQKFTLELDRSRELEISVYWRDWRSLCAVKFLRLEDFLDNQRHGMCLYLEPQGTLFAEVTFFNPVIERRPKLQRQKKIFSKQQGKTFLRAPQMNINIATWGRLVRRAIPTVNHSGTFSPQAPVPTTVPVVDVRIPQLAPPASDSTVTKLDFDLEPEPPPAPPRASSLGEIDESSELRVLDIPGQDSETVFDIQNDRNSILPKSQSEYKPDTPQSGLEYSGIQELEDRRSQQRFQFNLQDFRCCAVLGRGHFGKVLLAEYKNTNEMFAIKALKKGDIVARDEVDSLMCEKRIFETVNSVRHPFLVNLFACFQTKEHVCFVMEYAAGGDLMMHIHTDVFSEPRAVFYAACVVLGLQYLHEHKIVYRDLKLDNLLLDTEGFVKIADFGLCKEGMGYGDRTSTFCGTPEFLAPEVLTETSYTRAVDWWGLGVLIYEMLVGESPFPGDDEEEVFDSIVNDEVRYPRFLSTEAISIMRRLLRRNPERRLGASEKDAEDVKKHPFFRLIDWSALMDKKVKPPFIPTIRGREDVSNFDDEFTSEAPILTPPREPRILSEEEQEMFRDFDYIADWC

N[C@H](CNC(=O)C1(c2ccc(Cl)cc2)CCCC1)c1ccc(C(=O)Nc2ccncc2)cc1 [CP612]
Force applied that led to paw withdrawal ([1]; 0min (30 min after ψεRACK, before CP612)): 90 grams and 100 grams and 96.7 grams | Force applied that led to paw withdrawal ([1]; 5min after CP612 1µg/5µL intradermally): 120 grams and 130 grams and 115 grams and 105 grams | Force applied that led to paw withdrawal ([1]; 10min after CP612 1µg/5µL intradermally): 100 grams and 110 grams and 130 grams and 115 grams and 120 grams and 135 grams | Force applied that led to paw withdrawal ([1]; 15min after CP612 1µg/5µL intradermally): 90 grams and 125 grams and 130 grams and 110 grams and 115 grams and 100 grams | Force applied that led to paw withdrawal ([1]; 30min after CP612 1µg/5µL intradermally): 120 grams and 123.3 grams and 125 grams and 115 grams | Force applied that led to paw withdrawal ([1]; 60min after CP612 1µg/5µL intradermally): 105 grams and 110 grams and 115 grams and 130 grams and 120 grams | Force applied that led to paw withdrawal ([1]; baseline (before ψεRACK and CP612)): 130 grams and 120 grams and 125 grams | Effect on ψεRACK-induced hyperalgesia ([1]; male rats, CP612 1 μg/5 μL intradermally 30 min after ψεRACK, up to 60 minutes): reduced; also recorded: near-complete reversal; also recorded: attenuated | scanMax % of control, PKN2 (PKN2): < 10 % of control | scanMax % of control, ROCK2 (ROCK2): < 10 % of control | logD at 3 h [2]: 1.5 ± 0.75 | logD [2]: 1.504 | Effect on pain thresholds after repeated saline ([3]; male and female mice, CP612 20 mg/kg i.p.): not modified | Effect on development of morphine-withdrawal hyperalgesia ([3]; male and female mice, CP612 20 mg/kg i.p. 6 hours after last morphine injection): prevented | von Frey filament number that led to paw withdrawal ([3]; female mice, Morphine schedule, 1week): 9 and 8 | von Frey filament number that led to paw withdrawal ([3]; female mice, Morphine schedule, 2weeks): 8.75 | von Frey filament number that led to paw withdrawal ([3]; female mice, Morphine schedule, 3weeks): 8.5 | von Frey filament number that led to paw withdrawal ([3]; female mice, Morphine schedule, 4weeks): 8.5 | von Frey filament number that led to paw withdrawal ([3]; female mice, Morphine schedule, 24h): 7.5 and 9.5 | von Frey filament number that led to paw withdrawal ([3]; female mice, Morphine schedule, Baseline): 9 and 9.5 | von Frey filament number that led to paw withdrawal ([3]; female mice, Saline schedule, 1week): 9.5 and 9 and 8.5 and 10 | von Frey filament number that led to paw withdrawal ([3]; female mice, Saline schedule, 2weeks): 9.5 and 9 and 10 | von Frey filament number that led to paw withdrawal ([3]; female mice, Saline schedule, 3weeks): 9 and 9.5 and 10 | von Frey filament number that led to paw withdrawal ([3]; female mice, Saline schedule, 4weeks): 9.5 and 9 and 10 | von Frey filament number that led to paw withdrawal ([3]; female mice, Saline schedule, 24h): 9 and 8 and 8.5 and 10 | von Frey filament number that led to paw withdrawal ([3]; female mice, Saline schedule, Baseline): 9.5 and 8.5 and 9 and 10 and 10.5 | von Frey filament number that led to paw withdrawal ([3]; male mice, Morphine schedule, 1week): 9.5 and 7.5 and 8.5 and 9 and 8 and 10 | von Frey filament number that led to paw withdrawal ([3]; male mice, Morphine schedule, 2weeks): 9 and 7.5 and 8 and 9.5 and 9.25 and 7.75 and 10.5 | von Frey filament number that led to paw withdrawal ([3]; male mice, Morphine schedule, 3weeks): 8 and 9 and 9.5 and 10.5 | von Frey filament number that led to paw withdrawal ([3]; male mice, Morphine schedule, 4weeks): 8 and 7.5 and 9.5 and 9 and 11 and 10 | von Frey filament number that led to paw withdrawal ([3]; male mice, Morphine schedule, 24h): 8.5 and 7.5 and 9.5 and 8 and 7 and 10.5 | von Frey filament number that led to paw withdrawal ([3]; male mice, Morphine schedule, Baseline): 7.5 and 7 and 8.5 and 9.5 and 9 | von Frey filament number that led to paw withdrawal ([3]; male mice, Saline schedule, 1week): 9 and 8.5 and 9.5 and 10.5 and 10 | von Frey filament number that led to paw withdrawal ([3]; male mice, Saline schedule, 2weeks): 6.5 and 7 and 9 and 8.5 and 8 and 9.5 and 10 | von Frey filament number that led to paw withdrawal ([3]; male mice, Saline schedule, 3weeks): 9.5 and 9 and 10 | von Frey filament number that led to paw withdrawal ([3]; male mice, Saline schedule, 4weeks): 8 and 6.5 and 6 and 9 and 7.5 and 9.5 and 10 and 10.5 | von Frey filament number that led to paw withdrawal ([3]; male mice, Saline schedule, 24h): 7.5 and 7 and 9 and 9.5 and 10 | von Frey filament number that led to paw withdrawal ([3]; male mice, Saline schedule, Baseline): 7.5 and 8.5 and 6.5 and 8 and 9 and 9.5 and 10.5 | Duration of prevention of hyperalgesia after administration ([3]; single dose CP612 20 mg/kg i.p.): up to 4 weeks | Inhibition of conventional PKCβII (PKCβII): weakly inhibited | remaining binding at 0.2 µM (PKN1 (Protein kinase N1)): < 10%

CN1CC[C@]23c4c5ccc(O)c4O[C@H]2[C@@H](O)C=C[C@H]3[C@H]1C5 [Morphine, Morphine sulfate, reference compound]
von Frey filament number that led to paw withdrawal ([4]; 1week after last morphine injection): 5.5 filament number and 7.5 filament number and 6 filament number | von Frey filament number that led to paw withdrawal ([4]; 6h after last morphine injection): 7.5 filament number and 9.5 filament number and 8 filament number and 7 filament number | von Frey filament number that led to paw withdrawal ([4]; 24h after last morphine injection): 5.5 filament number and 6.5 filament number and 6 filament number and 7.5 filament number | von Frey filament number that led to paw withdrawal ([4]; Baseline): 7.5 filament number and 8.5 filament number and 8 filament number and 9.5 filament number | Hyperalgesia after withdrawal from repeated morphine ([4]; 6 hours after last injection): not present | Hyperalgesia after withdrawal from repeated morphine ([4]; 24 hours and 1 week after last injection): present
